Measurements: US11384113B2, “Cobalamin derivatives and their use for the treatment of diseases caused by lack of vitamin B12 supply” (Albert-Ludwigs-Universitaet Freiburg, priority 2017, dated 2022)
Positions count from the first letter of the chain named. Where two headings read alike, the source gives them in different places. Each block holds one compound with its values, some of them ahead of it.

Experiments:
[1] = cited from earlier work
[2] = base-on to base-off equilibrium; cited from earlier work
[3] = biological target: T1, human recombinant CblC wild type (Homo sapiens, UniProt Q9Y4U1); type: biochemical; details: for Product under ambient conditions, Wild type CblC: dealkylation, 5 mM GSH; for Half-life of beta-axial ligand removal, Wild type CblC: human, pH 7.6
T1 sequence (Q9Y4U1 1-282): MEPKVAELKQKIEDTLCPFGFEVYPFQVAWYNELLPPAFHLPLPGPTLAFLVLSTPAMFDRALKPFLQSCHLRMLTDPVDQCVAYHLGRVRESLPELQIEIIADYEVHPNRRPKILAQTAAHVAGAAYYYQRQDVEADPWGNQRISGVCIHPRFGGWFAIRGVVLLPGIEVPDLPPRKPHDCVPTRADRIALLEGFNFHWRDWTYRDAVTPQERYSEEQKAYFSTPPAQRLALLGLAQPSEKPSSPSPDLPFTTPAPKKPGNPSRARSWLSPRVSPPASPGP
Experimental: (§1) The ability of the newly synthesized Cbl derivatives to serve as substrates for CblC was examined (FIG. 12). CblC activity was measured by UV-visible spectroscopy according to published procedures. Analysis of reaction products was performed by mass spectrometry. We measured dealkylation and de-thiolation of Co—C and Co—S bonded Cbl derivatives, respectively, by wild type and mutant CblC proteins to determine whether these reactions could be supported in patients harboring an abnormal isoform of CblC with low or no enzymatic activity.
The enzymatic activity of CblC in the presence of CyaCbl and MPGCbl as substrates was evaluated under the same experimental conditions utilized to examine dealkylation of MeCbl and AdoCbl. […] The reaction was complete in less than 10 seconds, which is the time it takes to record the first spectrum after mixing of CblC-bound to CyaCbl or MPGCbl with 5 mM GSH (FIG. 12).
(§2) First, the ability of novel cobalamins described herein was tested to act as substrate for wild type CblC and to restore the lost activity of pathogenic variants, such as mutant Arg161Gly, that leads to early-onset form of the cblC disease.

[4] = biological target: T2, human recombinant CblC pathogenic mutant Arg161Gly (Homo sapiens, UniProt Q9Y4U1, R161G); type: biochemical; details: for Product under ambient conditions, Mutant Arg161Gly: dealkylation, 5 mM GSH; for Half-life of beta-axial ligand removal, Mutant Arg161Gly: human, pH 7.6
T2 sequence (Q9Y4U1 1-282 R161G): T1 sequence (Q9Y4U1 1-282) with R161G
Experimental: as §1, §2

[5] = system: fibroblasts isolated from patients with cblC disease; assay: MMA in conditioned medium of cblC patient fibroblasts; type: cell-based, human
Description: (§3) Cultured cells from control (healthy neonatal subjects) or cblC fibroblasts were supplemented without exogenous Cbl (negative control), with commercial CNCbl (current therapy control) or with the newly synthesized cobalamins (test group). The ability of these compounds to support intracellular Cbl metabolism in the absence of CblC was examined by monitoring disease biomarker metabolites Hcy and MMA levels in the conditioned medium.
(§4) The cellular response to treatment with new derivatives CyaCbl and MPGCbl in comparison with current therapeutic form CNCbl was measured. The ability of the new cobalamin derivatives CyaCbl and MPGCbl to achieve metabolic control, i.e. reduction of for example MMA production by cblC fibroblasts in culture, was examined as described in previously published experimental protocols. FIG. 13 provides a comparison of the effect of CNCbl (0.001 mM) versus the same dose of CyaCbl or MPGCbl given to cultured fibroblasts from healthy subjects (HFF, NHDF, PCS, Wiesel, Control) or from cblC patients (WG1801, WG2176, WG3354, GM10011, GM02345B, GM02452C).
(§5) Additional examination of the effect of thiolatocobalamins CyaCbl and MPGCbl and sulfur-containing alkylcobalamin Me-S-MeCbl with respect to structural analogues that are NOT available for therapy was also carried out, for comparative purposes. The results of cellular response (healthy controls and cblC patient fibroblasts) to cobalamin treatment, as reflected by MMA levels is provided in Table 6.

[6] = system: fibroblasts from healthy subjects; assay: MMA in conditioned medium of control fibroblasts; type: cell-based, human
Description: as §3, §4, §5

[7] = GM02345B cblC fibroblasts, after 7 days
[8] = GM02452C cblC fibroblasts, after 7 days
[9] = GM10011 cblC fibroblasts, after 7 days
[10] = WG1801 cblC fibroblasts, after 7 days
[11] = WG2176 cblC fibroblasts, after 7 days
[12] = WG3354 cblC fibroblasts, after 7 days
[13] = cblC patients (group value), after 7 days
[14] = cblC patients, after 7 days wash-off period without supplemental cobalamin
[15] = Controls (group value), after 7 days
[16] = Controls, after 7 days wash-off period without supplemental cobalamin
[17] = HFF control fibroblasts, after 7 days
[18] = NHDF control fibroblasts, after 7 days
[19] = Wiezel control fibroblasts, after 7 days

Compound: C/C1=C2/[N-][C@H]([C@H](CC(N)=O)[C@@]2(C)CCC(=O)NC[C@@H](C)OP(=O)([O-])O[C@H]2[C@@H](O)[C@@H](n3cnc4cc(C)c(C)cc43)O[C@@H]2CO)[C@]2(C)N=C(/C(C)=C3N=C(/C=C4N=C1[C@@H](CCC(N)=O)C\4(C)C)[C@@H](CCC(N)=O)[C@]\3(C)CC(N)=O)[C@@H](CCC(N)=O)[C@]2(C)CC(N)=O.[CH2-][C@H]1O[C@@H](n2cnc3c(N)ncnc32)[C@H](O)[C@@H]1O.[Co] [AdoCbl, Adenosylcobalamin]
Redox potential [V] relative to NHE ([1]; electrochemical, DMF/methanol): −1.04 V | pKa of base on/base off [2]: 3.50

Compound: CC1=C2N=C(C=C3N=C(C(C)=C4[N-]C(C(CC(N)=O)C4(C)CCC(=O)NCC(C)OP(=O)([O-])OC4C(CO)OC(n5cnc6cc(C)c(C)cc65)C4O)C4(C)N=C1C(CCC(N)=O)C4(C)CC(N)=O)C(CCC(N)=O)C3(C)C)C(CCC(N)=O)C2(C)CC(N)=O.CCC[CH2][Co+2] (centres unmarked) [BuCbl, butylcobalamin, reference compound]
Product under ambient conditions, Wild type CblC [3]: H2OCbl | Half-life of beta-axial ligand removal, Wild type CblC [3]: 1155 min | Product under ambient conditions, Mutant Arg161Gly [4]: No reaction | Half-life of beta-axial ligand removal, Mutant Arg161Gly [4]: 0 min

Compound: C/C1=C2/[N-][C@H]([C@H](CC(N)=O)[C@@]2(C)CCC(=O)NC[C@@H](C)OP(=O)([O-])O[C@H]2[C@@H](O)[C@@H](n3cnc4cc(C)c(C)cc43)O[C@@H]2CO)[C@]2(C)N=C(/C(C)=C3N=C(/C=C4N=C1[C@@H](CCC(N)=O)C\4(C)C)[C@@H](CCC(N)=O)[C@]\3(C)CC(N)=O)[C@@H](CCC(N)=O)[C@]2(C)CC(N)=O.[Co].[OH3+] [H2O, Aquacobalamin]
Redox potential [V] relative to NHE ([1]; 22° C.): 0.20 V | pKa of base on/base off [2]: −2.40

Product under ambient conditions, Wild type CblC [3]: H2OCbl | Half-life of beta-axial ligand removal, Wild type CblC [3]: 10 min | Product under ambient conditions, Mutant Arg161Gly [4]: Cob(II)alamin | Half-life of beta-axial ligand removal, Mutant Arg161Gly [4]: 60 min
Compound: C/C1=C2/[N-][C@H]([C@H](CC(N)=O)[C@@]2(C)CCC(=O)NC[C@H](C)OP(=O)([O-])O[C@H]2[C@@H](O)[C@@H](n3cnc4cc(C)c(C)cc43)O[C@@H]2CO)[C@]2(C)N=C(/C(C)=C3N=C(/C=C4N=C1[C@@H](CCC(N)=O)C\4(C)C)[C@@H](CCC(N)=O)[C@]\3(C)CC(N)=O)[C@@H](CCC(N)=O)[C@]2(C)CC(N)=O.[CH3-].[Co+3] [MeCbl, Methylcobalamin, reference compound]
MMA in conditioned medium [5, 7]: 0.250 μmol/mg protein | MMA in conditioned medium [5, 8]: 0.243 μmol/mg protein | MMA in conditioned medium [5, 9]: 0.066 μmol/mg protein | MMA in conditioned medium [5, 10]: 0.429 μmol/mg protein | MMA in conditioned medium [5, 11]: 0.459 μmol/mg protein | MMA in conditioned medium [5, 12]: 0.891 μmol/mg protein | MMA in conditioned medium [5, 13]: 0.390 μmol/mg protein | MMA in conditioned medium [5, 14]: 0.298 μmol/mg protein | Redox potential [V] relative to NHE ([1]; electrochemical, 20° C.): −1.20 V | MMA in conditioned medium [6, 15]: 0.118 μmol/mg protein | MMA in conditioned medium [6, 16]: 0.131 μmol/mg protein | MMA in conditioned medium [6, 17]: 0.106 μmol/mg protein | MMA in conditioned medium [6, 18]: 0.152 μmol/mg protein | MMA in conditioned medium [6, 19]: 0.095 μmol/mg protein | pKa of base on/base off [2]: 2.90

Compound: CC1=C2N=C(C=C3N=C(C(C)=C4[N-]C(C(CC(N)=O)C4(C)CCC(=O)NCC(C)OP(=O)([O-])OC4C(CO)OC(n5cnc6cc(C)c(C)cc65)C4O)C4(C)N=C1C(CCC(N)=O)C4(C)CC(N)=O)C(CCC(N)=O)C3(C)C)C(CCC(N)=O)C2(C)CC(N)=O.CSC[CH2][Co+2] (centres unmarked) [Me—S—EtCbl]
Product under ambient conditions, Wild type CblC [3]: H2OCbl/Cob(II)alamin | Half-life of beta-axial ligand removal, Wild type CblC [3]: 7.5 min | Product under ambient conditions, Mutant Arg161Gly [4]: Cob(II)alamin | Half-life of beta-axial ligand removal, Mutant Arg161Gly [4]: 11.5 min

Compound: CC1=C2N=C(C=C3N=C(C(C)=C4[N-]C(C(CC(N)=O)C4(C)CCC(=O)NCC(C)OP(=O)([O-])OC4C(CO)OC(n5cnc6cc(C)c(C)cc65)C4O)C4(C)N=C1C(CCC(N)=O)C4(C)CC(N)=O)C(CCC(N)=O)C3(C)C)C(CCC(N)=O)C2(C)CC(N)=O.CS[CH2][Co+2] (centres unmarked) [Me—S—MeCbl]
Product under ambient conditions, Wild type CblC [3]: H2OCbl/Cob(II)alamin | Half-life of beta-axial ligand removal, Wild type CblC [3]: 8.5 min | Product under ambient conditions, Mutant Arg161Gly [4]: Cob(II)alamin | Half-life of beta-axial ligand removal, Mutant Arg161Gly [4]: 12 min | MMA in conditioned medium [5, 7]: 0.150 μmol/mg protein | MMA in conditioned medium [5, 8]: 0.150 μmol/mg protein | MMA in conditioned medium [5, 9]: 0.041 μmol/mg protein | MMA in conditioned medium [5, 10]: 0.254 μmol/mg protein | MMA in conditioned medium [5, 11]: 0.083 μmol/mg protein | MMA in conditioned medium [5, 12]: 0.148 μmol/mg protein | MMA in conditioned medium [5, 13]: 0.138 μmol/mg protein | MMA in conditioned medium [5, 14]: 0.177 μmol/mg protein | MMA in conditioned medium [6, 15]: 0.122 μmol/mg protein | MMA in conditioned medium [6, 16]: 0.145 μmol/mg protein | MMA in conditioned medium [6, 17]: 0.132 μmol/mg protein | MMA in conditioned medium [6, 18]: 0.103 μmol/mg protein | MMA in conditioned medium [6, 19]: 0.132 μmol/mg protein

Compound: CC1=C2N=C(C=C3N=C(C(C)=C4[N-]C(C(CC(N)=O)C4(C)CCC(=O)NCC(C)OP(=O)([O-])OC4C(CO)OC(n5cnc6cc(C)c(C)cc65)C4O)C4(C)N=C1C(CCC(N)=O)C4(C)CC(N)=O)C(CCC(N)=O)C3(C)C)C(CCC(N)=O)C2(C)CC(N)=O.O=[N+]([O-])[Co+2] (centres unmarked) [NO2]
pKa of base on/base off [2]: −0.15

Compound: CC1=C2N=C(C=C3N=C(C(C)=C4[N-]C(C(CC(N)=O)C4(C)CCC(=O)NCC(C)OP(=O)([O-])OC4C(CO)OC(n5cnc6cc(C)c(C)cc65)C4O)C4(C)N=C1C(CCC(N)=O)C4(C)CC(N)=O)C(CCC(N)=O)C3(C)C)C(CCC(N)=O)C2(C)CC(N)=O.CC[CH2][Co+2] (centres unmarked) [PrCbl, propylcobalamin, reference compound]
Product under ambient conditions, Wild type CblC [3]: H2OCbl | Half-life of beta-axial ligand removal, Wild type CblC [3]: 318 min | Product under ambient conditions, Mutant Arg161Gly [4]: No reaction | Half-life of beta-axial ligand removal, Mutant Arg161Gly [4]: 0 min

Compound: CC1=C2N=C(C=C3N=C(C(C)=C4[N-]C(C(CC(N)=O)C4(C)CCC(=O)NCC(C)OP(=O)([O-])OC4C(CO)OC(n5cnc6cc(C)c(C)cc65)C4O)C4(C)N=C1C(CCC(N)=O)C4(C)CC(N)=O)C(CCC(N)=O)C3(C)C)C(CCC(N)=O)C2(C)CC(N)=O.N#C[S][Co+2] (centres unmarked) [SCN^−]
pKa of base on/base off [2]: 3.40

Compound: cyanocobalamin [CNCbl]
Redox potential [V] relative to NHE ([1]; electrochemical, DMSO/propanol): −0.76 V | pKa of base on/base off [2]: 0.10
